Tested on: not listed separately
Assay: Preliminary pharmacokinetic testing in ICR mice (gavage 5 mg/kg, intravenous 1 mg/kg)
Format: in vivo
Details: male, mouse, oral administration (5 mg/kg), plasma
Protocol: 1. 6 healthy ICR mice, male, weighing 30-35 g, were randomly divided into 2 groups with 3 mice in each group. The tested compound was administered by gavage (5 mg/kg) and intravenous injection (1 mg/kg), respectively:
Feeding uniformly 4 hours after administration.

AUC(0-t) | half-life | SMILES
619 ng·h/mL | – | COc1ccc2c(Oc3ccc(CC(=O)NO)cc3)ccnc2n1 [Compound 2, N-hydroxy-2-(4-((7-methoxy-1,8-naphthylidin-4-yl)oxy)phenyl)acetamide]
887 ng·h/mL | 1.3 h | COc1ccc2c(Oc3ccc(C(C)(C)C(=O)NO)cc3)ccnc2n1 [Compound 42]
161 ng·h/mL | 2.44 h | Cn1ncc2c(Nc3ccc(C(C)(C)C(=O)NO)cc3)ncnc21 [Compound 68]
463 ng·h/mL | 2 h | COc1ccc2c(Oc3ccc(C4(C(=O)NO)CCOCC4)cc3)ccnc2n1 [Compound 107]
1590 ng·h/mL | 3.9 h | COc1ccc2c(Oc3ccc(C(C)(C)C(=O)NO)c(F)c3)ccnc2n1 [Compound 110]

Same assay, conditions: male, mouse, oral administration (5 mg/kg), plasma, read-out: Cmax

Cmax | SMILES
1490 ng/mL | COc1ccc2c(Oc3ccc(C(C)(C)C(=O)NO)cc3)ccnc2n1 [Compound 42]
244 ng/mL | Cn1ncc2c(Nc3ccc(C(C)(C)C(=O)NO)cc3)ncnc21 [Compound 68]
640 ng/mL | COc1ccc2c(Oc3ccc(C4(C(=O)NO)CCOCC4)cc3)ccnc2n1 [Compound 107]
2370 ng/mL | COc1ccc2c(Oc3ccc(C(C)(C)C(=O)NO)c(F)c3)ccnc2n1 [Compound 110]

Same assay, conditions: male, mouse, plasma, oral administration (5 mg/kg) vs intravenous (1 mg/kg), read-out: F %

bioavailability | SMILES
20.2% | Cn1ncc2c(Nc3ccc(C(C)(C)C(=O)NO)cc3)ncnc21 [Compound 68]

Same assay, conditions: male, mouse, plasma, po, 5 mg/kg, read-out: oral bioavailability

bioavailability | SMILES
> 20% | COc1ccc2c(Oc3ccc(CC(=O)NO)cc3)ccnc2n1 [Compound 2, N-hydroxy-2-(4-((7-methoxy-1,8-naphthylidin-4-yl)oxy)phenyl)acetamide]
> 20% | COc1ccc2c(Oc3ccc(C(C)(C)C(=O)NO)c(F)c3)ccnc2n1 [Compound 110]

Same assay, conditions: oral administration (5 mg/kg), plasma

Cmax | T1/2 | SMILES
736 ng/mL | 3.26 h | COc1ccc2c(Oc3ccc(CC(=O)NO)cc3)ccnc2n1 [Compound 2, N-hydroxy-2-(4-((7-methoxy-1,8-naphthylidin-4-yl)oxy)phenyl)acetamide]

Biological target: T1, ENPP1 (hENPP1-ECD-His) (Homo sapiens (Human), UniProt P22413)
T1 sequence (P22413 98-925): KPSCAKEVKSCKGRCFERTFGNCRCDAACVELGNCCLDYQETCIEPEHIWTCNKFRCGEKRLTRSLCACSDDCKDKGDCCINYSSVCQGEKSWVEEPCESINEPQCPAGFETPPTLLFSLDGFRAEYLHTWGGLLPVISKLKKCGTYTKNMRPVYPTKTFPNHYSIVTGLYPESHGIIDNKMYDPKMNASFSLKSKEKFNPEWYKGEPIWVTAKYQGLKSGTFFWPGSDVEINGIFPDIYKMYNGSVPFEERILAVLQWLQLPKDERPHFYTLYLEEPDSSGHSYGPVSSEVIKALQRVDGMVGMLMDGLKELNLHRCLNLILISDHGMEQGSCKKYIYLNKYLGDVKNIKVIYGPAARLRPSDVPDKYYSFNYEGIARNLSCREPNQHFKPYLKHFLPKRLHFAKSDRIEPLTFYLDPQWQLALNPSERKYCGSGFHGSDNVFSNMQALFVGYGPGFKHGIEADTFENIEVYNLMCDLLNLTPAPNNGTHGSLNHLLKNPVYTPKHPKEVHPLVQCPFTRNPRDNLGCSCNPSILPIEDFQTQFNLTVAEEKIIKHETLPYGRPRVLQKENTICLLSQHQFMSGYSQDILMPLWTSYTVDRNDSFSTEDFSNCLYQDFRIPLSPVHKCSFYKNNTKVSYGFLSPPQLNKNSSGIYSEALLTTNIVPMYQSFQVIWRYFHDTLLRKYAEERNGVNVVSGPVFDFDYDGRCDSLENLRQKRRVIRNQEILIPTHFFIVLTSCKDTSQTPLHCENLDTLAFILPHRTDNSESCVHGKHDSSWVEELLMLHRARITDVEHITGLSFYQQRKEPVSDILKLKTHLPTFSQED
Assay: not given
Details: not given

IC50 | SMILES
4.8 nM | Cn1ncc2c(Nc3ccc(C(C)(C)C(=O)NO)cc3)ncnc21 [Compound 68]
4.4 nM | COc1ccc2c(Oc3ccc(C4(C(=O)NO)CCOCC4)cc3F)ccnc2n1 [Compound 136]
2.6 nM | COc1ccc2c(Oc3c(F)cc(C4(C(=O)NO)CCOCC4)cc3F)ccnc2n1 [Compound 137]
6 nM | COc1ccc2c(Oc3ccc(C4(C(=O)NO)CCOCC4)cc3Cl)ccnc2n1 [Compound 138]
2.3 nM | COc1ccc2c(Oc3ccc(C4(C(=O)NO)CCOCC4)c(C)c3)ccnc2n1 [Compound 139]
1.4 nM | COc1ccc2c(Cc3ccc(C4(C(=O)NO)CCCC4)cc3)ccnc2n1 [Compound 141, N-hydroxy-1-(4-((7-methoxy-1,8-naphthylidin-4-yl)methyl)phenyl)cyclopentane-1-formamide]
13 nM | COc1ccc2c(NC3CCC(CC(=O)NO)C3)ccnc2n1 (stereo not drawn) [Compound 142]
4.7 nM | COc1ccc2c(NC3CCN(CC(=O)NO)C3)ccnc2n1 (stereo not drawn) [Compound 143]
259 nM | COc1ccc2c(NC3CCN(C(C)(C)C(=O)NO)C3)ccnc2n1 (stereo not drawn) [Compound 144]
4.2 nM | COc1ccc2c(Oc3ccc4c(c3)CCCC4C(=O)NO)ccnc2n1 (stereo not drawn) [Compound 145]
1.5 nM | COc1ccc2c(Nc3ccc(C(C)(C)C(=O)NO)cc3)cnnc2c1 [Compound 147]
2.8 nM | COc1ccc2c(Oc3ccc(C(N)C(=O)NO)cc3)ccnc2n1 (stereo not drawn) [Compound 148]
7.2 nM | COc1ccc2c(Oc3ccc(C(C(=O)NO)C(C)C)c(F)c3)ccnc2n1 (stereo not drawn) [Compound 150]
70 nM | COc1ccc2c(Nc3ncc(CC(=O)NO)cn3)ccnc2n1 [Compound 151]
81 nM | COc1ccc2c(CN3CCC(C(C)(C)C(=O)NO)C3)ccnc2n1 (stereo not drawn) [Compound 157]
9.9 nM | COc1ccc2c(N3CCc4cc(C5(C(=O)NO)CCOCC5)ccc43)ccnc2n1 [Compound 158]
15 nM | COc1ccc2c(Nc3ccc(C(C(=O)NO)C(C)C)c(F)c3)ccnc2n1 (stereo not drawn) [Compound 160]
16 nM | COc1ccc2c(Nc3ccc(C(C(=O)NO)C(C)C)cc3)ccnc2n1 (stereo not drawn) [Compound 161]
3 nM | COc1ccc2c(Nc3ccc(C4(C(=O)NO)CCOCC4)c(F)c3)ccnc2n1 [Compound 162]
2.9 nM | CCn1ncc2c(Nc3ccc(C4(C(=O)NO)CCOCC4)cc3)ccnc21 [Compound 163]

IC50 | SMILES
3.4 nM | COc1ccc2c(Nc3ccc(C4(C(=O)NO)CCOCC4)cc3)ccnc2c1 [Compound 164]
103 nM | COc1ccc2c(Nc3cnn(C(C(=O)NO)C(C)C)c3)ccnc2n1 (stereo not drawn) [Compound 167]
18 nM | COc1ccc2c(Oc3ccc(C(C(=O)NO)C4CCCC4)cc3)ccnc2n1 (stereo not drawn) [Compound 170]
1.8 nM | COc1ccc2c(Cc3ccc(C4(C(=O)NO)CCOCC4)cc3)ccnc2n1 [Compound 171]
3.1 nM | COc1ccc2c(Oc3ccc(C(C)(C(=O)NO)C4CCOCC4)cc3)ccnc2n1 (stereo not drawn) [Compound 172]
2.1 nM | COc1ccc2c(Nc3cnn(C4(C(=O)NO)CCOCC4)c3)ccnc2n1 [Compound 174]
1.9 nM | COc1ccc2c(Oc3ccc(C4(C(=O)NO)CCCOCC4)cc3)ccnc2n1 (stereo not drawn) [Compound 175]
2.9 nM | COc1ccc2c(Oc3ccc(C4(C(=O)NO)CC5CCC(C4)O5)cc3)ccnc2n1 (stereo not drawn) [Compound 176]
7.9 nM | COc1cc2nccc(Nc3ccc(C(C(=O)NO)C(C)C)cc3)c2cn1 (stereo not drawn) [Compound 177]
1.2 nM | COc1cc2nccc(Nc3ccc(C4(C(=O)NO)CCOCC4)cc3F)c2cn1 [Compound 178]
1 nM | COc1cc2nccc(Nc3ccc(C(CC(C)C)C(=O)NO)cc3)c2cn1 (stereo not drawn) [Compound 179]
1.6 nM | COc1ccc2c(Nc3ccc(C4(C(=O)NO)CCOCC4)cc3)c(C#N)cnc2c1 [Compound 180]
1.9 nM | COc1cc2nccc(Nc3ccc(C4(C(=O)NO)CCOCC4)c(F)c3)c2cn1 [Compound 181]
1.7 nM | COc1ccc2c(Nc3ccc(C(CC(C)C)C(=O)NO)cc3)ccnc2n1 (stereo not drawn) [Compound 182]
2.2 nM | COc1cc2nccc(Nc3c(F)cc(C(CC(C)C)C(=O)NO)cc3F)c2cn1 (stereo not drawn) [Compound 184]
3.6 nM | COc1cc2nccc(Nc3c(F)cc(C(C(=O)NO)C(C)C)cc3F)c2cn1 (stereo not drawn) [Compound 185]
3.8 nM | COc1cc2nccc(Nc3cc(F)c(C(CC(C)C)C(=O)NO)c(F)c3)c2cn1 (stereo not drawn) [Compound 186]
27 nM | COc1cc2ncnc(Nc3ccc(C(C(=O)NO)C(C)C)cc3)c2cn1 (stereo not drawn) [Compound 187]
4.6 nM | COc1cc2ncnc(Nc3ccc(C(CC(C)C)C(=O)NO)cc3)c2cn1 (stereo not drawn) [Compound 188]
1.8 nM | COc1cc2nccc(Nc3ccc(CC(=O)NO)c(F)c3)c2cn1 [Compound 189]

IC50 | SMILES
3.9 nM | COc1cc2nccc(Nc3ccc(CC(=O)NO)cc3F)c2cn1 [Compound 190]
11 nM | COc1cc2nccc(Nc3cc(F)c(C(C(=O)NO)C(C)C)c(F)c3)c2cn1 (stereo not drawn) [Compound 191]
1.4 nM | CCn1ncc2c(Nc3ccc(CC(=O)NO)cc3F)ccnc21 [Compound 192]
2.2 nM | CCn1ncc2c(Nc3ccc(CC(=O)NO)c(F)c3)ccnc21 [Compound 193]
284 nM | Cc1noc2ncnc(Oc3ccc(C(C)(C)C(=O)NO)cc3)c12 [Compound 194, N-hydroxy-2-methyl-2-(4-((3-methylisoxazol[5,4-d]pyrimidin-4-yl)oxy)phenyl)propanamide]
130 nM | COc1ccc2c(Oc3ccc(N4CCC[C@H]4C(=O)NO)cc3)ccnc2n1 [Compound 196, (S)—N-hydroxy-1-(4-((7-methoxy-1,8-naphthylidin-4-yl)oxy)phenyl)pyrrolidin-2-formamide]
111 nM | Cn1ncc2c(Oc3ccc(C4(C(=O)NO)CCOCC4)c(Cl)c3)ccnc21 [Compound 197]
61 nM | COc1ccc2c(Oc3ccc([C@@H](C(=O)NO)C4CCOCC4)c(F)c3)ccnc2n1 [Compound 198]
11 nM | COc1ccc2c(Oc3ccc(C(CC(C)C)C(=O)NO)c(F)c3)ccnc2n1 (stereo not drawn) [Compound 201]
3.3 nM | COc1ccc2c(N[C@H]3CCN(C(C)(C)C(=O)NO)C3)ccnc2n1 [Compound 202]
1.8 nM | COc1ccc2c(Oc3ccc4c(c3)CCCC4(C)C(=O)NO)ccnc2n1 (stereo not drawn) [Compound 203]
24 nM | COc1ccc2c(N3CCc4cc(CC(=O)NO)ccc43)ccnc2n1 [Compound 204]
39 nM | COc1ccc2c(O[C@H]3CCN(C(C)(C)C(=O)NO)C3)ccnc2n1 [Compound 205]
12 nM | COc1ccc2c(Oc3ccc([C@H](C(=O)NO)C4CCOCC4)c(F)c3)ccnc2n1 [Compound 206]
9.3 nM | Cn1ncc2c(Nc3ccc(C4(C(=O)NO)CCOCC4)cc3)ncnc21 [Compound 207]
1.8 nM | COc1ccc2c(Nc3ccc(CC(=O)NO)cc3)ncnc2n1 [Example 1, N-hydroxy-2-(4-((7-methoxypyridino[2,3-d]pyrimidin-4-yl)amino)phenyl)acetamide]
89 nM | COc1cc2nccc(Nc3ccc(CC(=O)NO)cc3)c2cc1OC [Example A-1, reference compound]
3280 nM | CONC(=O)C(C)(C)c1ccc(Oc2ccnc3cc(OC)c(OC)cc23)cc1 [Example A-2, reference compound]

SMILES | IC50
COc1ccc2c(Oc3ccc(C4(C(=O)NO)CCN(C)CC4)cc3)ccnc2n1 [Compound 146] | 13 nM
COc1ccc2c(Oc3ccc(C4(C(=O)NO)CCN(Cc5ccccc5)CC4)cc3)ccnc2n1 [Compound 173] | 1.6 nM

Biological target: T1, ENPP1 (hENPP1-ECD-His)
Assay: biochemical
Details: not given

IC50 | SMILES
5.3 nM | COc1ccc2c(Oc3ccc(C(F)C(=O)NO)cc3)ccnc2n1 (stereo not drawn) [Compound 43]
3.7 nM | CCOC(C(=O)NO)c1ccc(Oc2ccnc3nc(OC)ccc23)cc1 (stereo not drawn) [Compound 86]
389 nM | CNc1ccc2c(Oc3ccc(C(C)(C)C(=O)NO)cc3)ccnc2c1 [Compound 102]
6.8 nM | COc1cc2nccc(Nc3cnn(C4(C(=O)NO)CCOCC4)c3)c2cn1 [Compound 183]
317 nM | CC(C)C(C(=O)NO)c1ccc(Nc2ncnc3c2cnn3C)cc1 (stereo not drawn) [Compound 199]

SMILES | IC50
COc1ccc2c(Oc3cnn(C(C)(C)C(=O)NO)c3)ccnc2n1 [Compound 155] | 28 nM

Reference: patent US20240383893A1, “Hydroxamic Acid Compound Having ENPP1 Inhibitory Activity and Use Thereof” (Haihe Biopharma Co., Ltd., priority 2021, published 2024)
